Reference: PMC8531552, “Full-Length Galectin-3 Is Required for High Affinity Microbial Interactions and Antimicrobial Activity” (Frontiers in Microbiology, 2021)

Legend:
P. alcalifaciens O5 [1] = experiment: Flow cytometry analysis of galectin binding to intact bacteria; design: species or system Providentia alcalifaciens O5
Experimental: (§1) To examine potential binding by each galectin, bacteria were resuspended and washed twice in PBS at 4°C and then incubated with 0.1μM Alexa Fluor™ 488 labeled Gal-3 or Gal-3C at 4°C for 20min. In some experiments, Gal-3 or Gal-3C were co-incubated with 20mM thiodigalactoside (TDG) for 10min before incubation with the bacteria as a control. After incubation, cells were washed twice and resuspended them in 400μl PBS for flow cytometry analysis using FACSCanto II flow cytometer (BD Biosciences). The data were processed with FlowJo version 10.

K. pneumoniae O1 [2] = experiment: as above; design: species or system Klebsiella pneumoniae O1
Experimental: as §1

P. alcalifaciens O21 [3] = experiment: as above; design: species or system Providentia alcalifaciens O21; details: 0.1μM Alexa Fluor 488 labeled galectin, 4°C, 20min
Experimental: as §1

P. alcalifaciens O5 [4] = experiment: Bacteria viability by CFU enumeration; assay type: cell-based, Providentia alcalifaciens O5; details: 37°C, 2h
Experimental: (§2) When assaying potential antimicrobial effects of Gal-3 and Gal-3C, each strain was assessed in the mid-logarithmic growth phase (OD600 of ~0.1) and grown in LB media as outlined previously ([Arthur et al., 2015b]). Bacterial cells were incubated with the concentrations of each galectin indicated in the figure legends (0.04–10μM) at 37°C for 2h with shaking at 250rpm. Bacteria were then pipetted and plated on LB agar plate to determine the number of viable bacteria by CFU enumeration.

P. alcalifaciens O21 [5] = experiment: Bacteria viability by CFU enumeration; assay type: cell-based, Providentia alcalifaciens O21; details: 0.04–10μM, 37°C, 2h
Experimental: as §2

K. pneumoniae O1 [6] = experiment: Bacteria viability by CFU enumeration; assay type: cell-based, Klebsiella pneumoniae O1; details: 37°C, 2h
Experimental: as §2

K. pneumoniae O4 = experiment: Bacteria viability by CFU enumeration; assay type: cell-based, Klebsiella pneumoniae O4; details: 0.04–10μM, 37°C, 2h
Experimental: as §2

human Gal-3 = biological target: T1, human Gal-3 (Homo sapiens, UniProt P17931); experiment: CFG glycan microarray binding of Alexa Fluor 488 labeled Gal-3
T1 construct: made in house; host or cells: E. coli BL21 (DE3)
Experimental: (§3) Galectins were labeled with Alexa Fluor™ 488 NHS Ester (succinimidyl ester) by incubating 2mg/ml galectin with 1mg Alexa Fluor™ 488 for 1h at room temperature and avoid from light as outlined previously ([Stowell et al., 2004]). […] While 2-ME is not required for Gal-3 activity, this approach was used to provide a consistent protocol for all galectin purification. […] Finally, labeled galectin was applied to CFG glycan microarray (CFG) and MGM prepared as described previously ([Blixt et al., 2004]; [Stowell et al., 2008a], [2014]; [Song et al., 2009]; [Wu et al., 2021a]). […] The slide was dried by microcentrifugation, and an image of bound fluorescence was obtained using a microarray scanner (GenePix 4000 B, Molecular devices). […] For non-saturated positive glycan interactions, the relative fluorescence units were plotted as a percent of the maximal binding at the highest concentration examined.
(§4) In order to compare the relative binding affinities of Gal-3 and Gal-3C toward blood group antigens and other glycan structures present on the array, we calculated the relative KD generated from binding isotherm data for each galectin toward various blood group antigens, polylactosamine (polyLacNAc), and other common structural modifications previously shown to influence galectin recognition (e.g., α2-6 sialylation).

[7] = biological target: T2, human Gal-3C (C-terminal domain of Gal-3) (Homo sapiens, UniProt P17931); experiment: CFG glycan microarray binding of Alexa Fluor 488 labeled Gal-3C
T2 construct: made in house; host or cells: E. coli BL21 (DE3)
Experimental: as §3, §4

[8] = 20mM TDG co-incubated with galectin
[9] = 0.1μM Alexa Fluor 488 labeled galectin, 4°C, 20min

T2 sequence (P17931 118-248 limits assumed): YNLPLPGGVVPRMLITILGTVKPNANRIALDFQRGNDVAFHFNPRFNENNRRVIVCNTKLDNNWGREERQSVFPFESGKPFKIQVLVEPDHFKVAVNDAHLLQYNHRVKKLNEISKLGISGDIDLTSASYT
T1 sequence (P17931 whole entry): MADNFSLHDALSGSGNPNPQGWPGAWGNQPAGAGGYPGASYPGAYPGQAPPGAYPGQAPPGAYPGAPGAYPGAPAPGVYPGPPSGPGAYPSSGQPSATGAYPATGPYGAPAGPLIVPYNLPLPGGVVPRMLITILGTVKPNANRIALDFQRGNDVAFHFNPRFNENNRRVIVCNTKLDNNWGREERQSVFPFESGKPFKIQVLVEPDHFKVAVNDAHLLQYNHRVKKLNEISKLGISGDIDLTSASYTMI

OC[C@H]1O[C@@H](S[C@@H]2O[C@H](CO)[C@H](O)[C@H](O)[C@H]2O)[C@H](O)[C@@H](O)[C@H]1O [TDG, thiodigalactoside, reference compound]
effect on Gal-3 and Gal-3C engagement of P. alcalifaciens O5 (P. alcalifaciens O5 [1]; [8]): inhibited recognition
effect on Gal-3 and Gal-3C binding to K. pneumoniae O1 (K. pneumoniae O1 [2]; [8]): prevented binding

Gal-3: recombinant human galectin-3, full-length chimeric galectin expressed in E. coli
binding to P. alcalifaciens O5 (P. alcalifaciens O5 [1]; [9]): Clear interactions
binding to P. alcalifaciens O21 (P. alcalifaciens O21 [3]): failed to result in any detectable binding
binding to K. pneumoniae O1 (K. pneumoniae O1 [2]; [9]): bound K. pneumoniae O1
impact on viability of P. alcalifaciens O5 (P. alcalifaciens O5 [4]; 0.04–10μM): reduced viability
EC50 (P. alcalifaciens O5 [4]; CFU enumeration, read-out: effective concentration 50 (EC50), viability of P. alcalifaciens O5): ~170 nM
impact on viability of P. alcalifaciens O21 (P. alcalifaciens O21 [5]): failed to result in any detectable impact on microbial viability
impact on viability of K. pneumoniae O1 (K. pneumoniae O1 [6]; 0.04–10μM): loss of microbial viability was noted at higher concentrations
EC50 (K. pneumoniae O1 [6]; CFU enumeration, read-out: EC50 toward K. pneumoniae O1 viability): 750 nM
impact on viability of K. pneumoniae O4 (K. pneumoniae O4): failed to impact the viability

blood group B
Gal-3 concentration at which recognition was observed (human Gal-3; CFG array, virtually no binding at or below 0.12μM): 0.36 µM
Gal-3 binding on CFG array (human Gal-3; binding isotherms, Fig 2 and 3): high affinity interactions
Gal-3C concentration required for similar absolute binding as Gal-3 at […] ([7]; CFG array): 3.3 µM
Gal-3C binding on CFG array ([7]; binding isotherms, Fig 2): high affinity interactions
